Measurements published in patent US8436049B2, “Uses of pentamidine and related compounds” (State of Oregon Acting By and Through the State Board of …, priority 2008, dated 2013).
Starred links: 1 amine or outer side, 2 acyl side, 3 side chain; linkers in the order of their positions; H or OH if unused. Positions of bridges follow the written chain, without caps; N, C: chain ends. Non-standard residues stand in square brackets, D forms with d. Residues, ends and D or L forms follow the SMILES beside them. Chains are numbered I, II in the order given. Actinocin(9to1) = Cc1c2oc3c(C)ccc(C(=O)[*:1])c3nc-2c(C(=O)[*:2])c(N)c1=O; NMeV = CN[C@H](C(=O)O)C(C)C; Sar = CNCC(=O)O

Legend:
[1] = tested on: cTNT splicing reporter in HeLa cells; test: cTNT splicing reporter (exon 5 inclusion) in HeLa cells with or without CUG960 plasmid; type: cell-based; conditions: presence of the CUG960 construct
Experimental: HeLa cells were grown in monolayers in DMEM with GlutaMAX™ (Gibco, Carlsbad, Calif.) and supplemented with 10% fetal bovine serum. Approximately 2.0 (±0.2)×10^5 cells were plated in 6 well plates and transfected 18-20 hours later at 70-90% confluency. 1 μg of plasmid was transfected into each well of cells, using 5 μL of […] (Invitrogen) according to the manufacturer's protocols. For co-transfection, 1 μg of total plasmid was transfected, at 500 ng of each construct. Test compounds were added 4 hours after transfection, when the media was changed. Cells were harvested 18-22 hours after transfection using TrypLE™ reagent (Gibco).
Immediately following harvesting, RNA was isolated from the cell pellets using an RNeasy® kit (Qiagen, Valencia, Calif.). 500 ng of isolated RNA was DNased with RQI DNase (Promega, Madison, Wis.) according to manufacture's protocol. 100 ng of DNAsed RNA was reverse transcribed with Superscript® II (Invitrogen, Carlsbad, Calif.) and a cTNT-specific reverse primer according to manufacturer's protocols. 30 ng of the reverse transcription reaction was subjected to 22-25 rounds of PCR amplification using cTNT specific primers spiked with a forward primer 5′ end-labeled with [γ-^32P]ATP. Similar methods were used to reverse transcribe and amplify IR and PLEKHH2. […] The resulting PCR products were run on a 6% (19:1) polyacrylamide denaturing gel. The gel was subsequently autoradiographed and quantitation of the radioactive bands was performed using ImageQuant® software.
The following primer pairs were used. For the cTNT minigene, the forward primer was […] (SEQ ID NO: 1), and the reverse primer was […] (SEQ ID NO: 2). For the IR minigene, the forward primer was […] (SEQ ID NO: 3), and the reverse primer was […] (SEQ ID NO: 4). The underlined sections are for cloning purposes. For the PLEKHH2 minigene, the forward primer was […] (SEQ ID NO: 5), and the reverse primer was […] (SEQ ID NO: 6).
The ability of pentamidine to alter the splicing defects observed in a cell-based model for DM was tested. This was accomplished in a system using cells transformed with a plasmid expressing 960 CUG repeats where the expression of these CUG repeats causes splicing defects similar to those observed in DM cells and DM subjects (Savkur et al., Nature Genet. 29:40-47, 2001).

MBNL-CUG RNA complex = molecular target: T1, MBNL-CUG RNA complex (Homo sapiens, UniProt Q9NR56); test: Gel shift assay, disruption of MBNL binding to short CUG repeat RNA; conditions: for Disruption of the MBNL-CUG interaction: gel shift screen, increasing amounts of small molecule
T1 construct: Both the full length MBNL and MBNL (1-260) constructs were cloned using BamHI and NotI restriction sites; GST (N, cleaved yes); made in house; host or cells: E. coli BL21-Star
T1 sequence (Q9NR56 1-382 isoform Q9NR56-5): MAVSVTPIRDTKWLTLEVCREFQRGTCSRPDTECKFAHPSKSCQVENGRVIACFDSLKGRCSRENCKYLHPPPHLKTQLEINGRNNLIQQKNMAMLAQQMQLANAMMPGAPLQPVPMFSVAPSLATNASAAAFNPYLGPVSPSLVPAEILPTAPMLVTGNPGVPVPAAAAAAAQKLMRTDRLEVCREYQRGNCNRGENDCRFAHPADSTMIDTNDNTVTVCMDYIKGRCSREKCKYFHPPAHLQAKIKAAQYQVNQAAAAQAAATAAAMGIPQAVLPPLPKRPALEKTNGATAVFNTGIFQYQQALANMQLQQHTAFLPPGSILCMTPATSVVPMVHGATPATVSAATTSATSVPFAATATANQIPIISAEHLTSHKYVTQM
Experimental: MBNL1 (MBNL) was PCR amplified and was cloned into GST fusion vector pGEX-6P-1 (GE Healthcare, Piscataway, N.J.), using DNA encoding a MBNL isoform with amino acids 1-382). Both the full length MBNL and MBNL (1-260) constructs were cloned using BamHI and NotI restriction sites. Using BL21-Star expression cells (Invitrogen, Carlsbad, Calif.), protein expression was induced with 0.25 mM IPTG at an OD600 of about 0.5-1, for 3-4 hours at 37° C. Cells were lysed in 30 ml of buffer (500 mM NaCl, 25 mM Tris pH 7.5, 10 mM β-mercaptoethanol (BME) and 5% glycerol) using 1 mg/ml of lysozyme, followed by sonication (3×30 seconds). Cell extract was centrifuged for 15 minutes at 17,000 rpm, and lysate which contained GST-MBNL was collected. GST-MBNL was bound to GST affinity beads for 30 minutes at 4° C. […] The protein was then run over an anion exchange (Q) column. […] MBNL was collected in the column flow through, concentrated and dialyzed into storage buffer (30% glycerol, 300 mM NaCl, 20 mM Tris pH 7.5, 5 mM BME) and stored at −80° C. Aliquots were removed from −80° C. and temporarily placed at −20° C. until used for an experiment.
All RNA substrates that were radiolabeled were ordered from IDT DNA (Coralville, Iowa), and 5′ end-labeled using [γ-^32P]ATP. All radiolabeled RNAs were purified on 8% polyacrylamide denaturing gels.
Solutions for the protein-RNA binding experiments contained 125 mM NaCl, 5 mM MgCl2, 20 mM Tris (pH 7.5), 7.5% glycerol, 2 mg/ml bovine serum albumin, and 0.1 mg/ml heparin. Prior to incubation, RNA substrates were annealed by incubation at 95° C. for 2 minutes and then placed directly on ice for 20 minutes in 66 mM NaCl, 6.7 mM MgCl2, and 27 mM Tris (pH 7.5). Protein was then added to the RNA in the presence or absence of the small molecule. The binding reaction was carried out in a 10 μL volume and was incubated for 10 minutes at room temperature before 2-4 μL were loaded on a pre-chilled 4° C. gel. RNA and RNA-protein complexes were separated on 3% acrylamide (37.5:1), 0.3% agarose (low melting point), 0.5× Tris-Borate (TB) gels, run for approximately 2-3 hours at 4° C. at 25-50 volts. Gels were dried and autoradiographed. For the neomycin B and CUG8 gel shift, an 8% acrylamide (29:1), 0.5×TB gel was used and run for 3 hours at 4° C. at 175 volts. All small molecules were dissolved in either water or ethanol, according to the manufacturer's guidance for solubility.
(§1) For binding curves, gels were quantified using ImageQuant® software (Molecular Dynamics, Piscataway, N.J.). The percent RNA bound was determined by taking the ratio of RNA-protein complex to total RNA, per lane. Any counts in the well were discarded as it was unapparent if the RNA was bound by protein, small molecule or was in an aggregate. Binding curves were graphed using KaleidaGraph software (Synergy Software, Reading, Pa.). For the neomycin B and CUG8 gel shift, the apparent Kd was determined using Equation 1, where Y=fraction bound, m0=small molecule concentration, m1=total RNA concentration, and m2=Kd.
For determining the EC50, Equation 3 was used, where m0=small molecule concentration, m1=EC50, m2=Hill coefficient, and m3=fraction MBNL bound without small molecule present. Y=m3/[1+(m0/m1)^m2] Equation 3 Results

MBNL-cTNT interaction = molecular target: T2, MBNL-cTNT interaction (Homo sapiens, UniProt Q9NR56); test: Gel shift assay, disruption of MBNL binding to cTNT pre-mRNA site; conditions: read-out: EC50 for disruption of MBNL binding to cTNT target construct
T2 construct: Both the full length MBNL and MBNL (1-260) constructs were cloned using BamHI and NotI restriction sites; GST (N, cleaved yes); made in house; host or cells: E. coli BL21-Star
T2 sequence (Q9NR56 1-382 isoform Q9NR56-5): T1 sequence (Q9NR56 1-382 isoform Q9NR56-5)
Experimental: Solutions for the protein-RNA binding experiments contained 125 mM NaCl, 5 mM MgCl2, 20 mM Tris (pH 7.5), 7.5% glycerol, 2 mg/ml bovine serum albumin, and 0.1 mg/ml heparin. Prior to incubation, RNA substrates were annealed by incubation at 95° C. for 2 minutes and then placed directly on ice for 20 minutes in 66 mM NaCl, 6.7 mM MgCl2, and 27 mM Tris (pH 7.5). Protein was then added to the RNA in the presence or absence of the small molecule. The binding reaction was carried out in a 10 μL volume and was incubated for 10 minutes at room temperature before 2-4 μL were loaded on a pre-chilled 4° C. gel. […]
as §1, with “Any counts in the well were discarded as it was unapparent if the RNA was bound by protein, small molecule or was in an aggregate.” left out, “m2=Kd. […]” for “m2=Kd.”
Pentamidine has been shown previously to bind to other RNAs and DNAs (Zhang et al., RNA 6:937-951, 2000); therefore, we determined pentamidine binding to an endogenous target of MBNL. […]

SMILES | Concentration giving complete rescue of cTNT missplicing [1] [µM] | Disruption of the MBNL-CUG interaction (MBNL-CUG RNA complex) | EC50 (MBNL-CUG RNA complex; gel shift, short CUG repeat RNA (CUG4), read-out: EC50 for disruption of MBNL binding to CUG repeat construct) [µM] | EC50 (MBNL-cTNT interaction) [µM]
N=C(N)c1ccc(OCCCCCCCOc2ccc(C(=N)N)cc2)cc1 [heptamidine] | 25 | – | – | –
NC[C@@H]1O[C@H](O[C@H]2[C@@H](O)[C@H](O[C@@H]3[C@@H](O)[C@H](N)C[C@H](N)[C@H]3O[C@H]3O[C@H](CN)[C@@H](O)[C@H](O)[C@H]3N)O[C@@H]2CO)[C@H](N)[C@@H](O)[C@@H]1O [neomycin B] | – | disrupt the MBNL-CUG interaction at micromolar concentrations | 110 | 50
NC[C@@H]1O[C@H](O[C@H]2[C@@H](O)[C@H](O[C@@H]3[C@@H](O)[C@H](N)C[C@H](N)[C@H]3O[C@H]3O[C@H](CO)[C@@H](O)[C@H](O)[C@H]3N)O[C@@H]2CO)[C@H](N)[C@@H](O)[C@@H]1O [paromomycin] | – | did not disrupt the MBNL-CUG interaction at any concentration | – | –
Cc1c2oc3c(C)ccc(C(=O)N[C@@H]4C(=O)N[C@H](C(C)C)C(=O)N5CCC[C@H]5C(=O)N(C)CC(=O)N(C)[C@@H](C(C)C)C(=O)O[C@@H]4C)c3nc-2c(C(=O)N[C@@H]2C(=O)N[C@H](C(C)C)C(=O)N3CCC[C@H]3C(=O)N(C)CC(=O)N(C)[C@@H](C(C)C)C(=O)O[C@@H]2C)c(N)c1=O [actinomycin D] (I: T[dV]P[Sar][NMeV] / II: T[dV]P[Sar][NMeV]; ester I:1-I:C, II:1-II:C; linker I:N-II:N via Actinocin(9to1)) | – | did not disrupt the MBNL-CUG interaction at any concentration | – | –
CN1C(=Cc2cc[n+](C)c3ccccc23)Sc2ccccc21 [thiazole orange] | – | disrupt the MBNL-CUG interaction at micromolar concentrations | – | –
